According to the NIST ThermoML archive (doi:10.1021/acs.jced.9b00436):
Numbers after ± are expanded uncertainties.

What was measured:
[1] = an = ratio of the nth substance listed; conditions: 100 kPa, Liquid; for viscosity: Falling or rolling sphere viscometry; for speed of sound: Frequency=5 MHz, Single path-length method; for mass density: Vibrating tube method
[2] = 100 kPa, Liquid, Frequency=5 MHz, Single path-length method

C[N+](C)(C)CCO.[Cl-] [choline chloride] + OCC(O)CO
[1], a2 = 2
Conditions	mass density [kg/m3]	speed of sound [m/s]	viscosity [mPa·s]
293 K	1194.3 ± 24	1987 ± 40	473 ± 190
298 K	1191.7 ± 24	1975 ± 40	364.4 ± 150
303 K	1188.5 ± 24	1963 ± 39	246.8 ± 100
308 K	1185.5 ± 24	1952 ± 39	193.8 ± 78
313 K	1182.7 ± 24	1941 ± 39	133.4 ± 54
318 K	1179.3 ± 24	1932 ± 39	110.4 ± 44
323 K	1177 ± 24	1923 ± 38	81.6 ± 33
328 K	1173.1 ± 24	1910 ± 38	70.2 ± 28
333 K	1171.3 ± 23	1900 ± 38	53.8 ± 22

C[N+](C)(C)CCO.[Cl-] [choline chloride] + OCCO
[1], a2 = 2
Conditions	mass density [kg/m3]	speed of sound [m/s]	viscosity [mPa·s]
293 K	1117.1 ± 22	1896 ± 38	50 ± 20
298 K	1114.5 ± 22	1882 ± 38	40.4 ± 16
303 K	1111.4 ± 22	1871 ± 37	33.6 ± 13
308 K	1108.6 ± 22	1860 ± 37	27.9 ± 11
313 K	1105.7 ± 22	1848 ± 37	23.6 ± 9.4
318 K	1102.6 ± 22	1837 ± 37	19.9 ± 8
323 K	1100.1 ± 22	1826 ± 37	17.2 ± 6.9
328 K	1096.7 ± 22	1813 ± 36	14.6 ± 5.8
333 K	1094.7 ± 22	1802 ± 36	12.8 ± 5.1

CCCCCCCCCC(=O)O [decanoic acid] + CCCCCCCCCCCCCC[P+](CCCCCC)(CCCCCC)CCCCCC.[Cl-]
[1], a1 = 2
Conditions	mass density [kg/m3]	speed of sound [m/s]	viscosity [mPa·s]
293 K	898.5 ± 18	1437 ± 29	346.3 ± 140
298 K	895.4 ± 18	1418 ± 29	260.5 ± 110
303 K	893.2 ± 18	1402 ± 28	197.8 ± 80
308 K	888.6 ± 18	1384 ± 28	151.6 ± 61
313 K	885.4 ± 18	1366 ± 28	117.9 ± 47
318 K	881.9 ± 18	1349 ± 27	93.7 ± 38
323 K	879.1 ± 18	1333 ± 27	76 ± 30
328 K	877.1 ± 18	1314 ± 27	62.8 ± 25
333 K	874.9 ± 18	1303 ± 26	52.8 ± 21

CCCCCCCCCCCCCCCC [hexadecane]
[2]
Conditions	speed of sound [m/s]
293 K	1356 ± 27
298 K	1340 ± 27
303 K	1325 ± 27
313 K	1287 ± 26
318 K	1268 ± 25
323 K	1248 ± 25
328 K	1227 ± 25
333 K	1210 ± 24
